# In patent US20040086901A1, “Database for analyzing gene function and method of analyzing gene function by dspa” (priority 2000, published 2004):
# What was measured:
# Format in all cases: cell-based, mouse
# [1] = test system: NIH3T3 cells overexpressing TK; experiment: MTT cell viability, TK overexpressing cells vs parental line; conditions: TK high-expressing cells / parental cell line, 3 to 4 days
# Protocol: (§1) With regard to the function-known genes, the genes shown in the left column of Table 2 were used. With regard to the drugs, those shown in Table 1 were dissolved in DMSO to an extent of 100-fold of the maximum concentration for the search of the drugs and used. With regard to the cells, incubated NIH3T3 or ras-NIH3T3 cells were used.
# (§2) Full-length cDNA of each function-known genes was incorporated into an expression vector (pRc-CMV, etc.) and transfected into NIH3T3 cells by a common method. Transformed cells were isolated using the resistance to G-418 as an index and the expression of the transfected gene in each cell was investigated by Western blotting method to select a highly expressing line.
# (§3) Cell viabilities were measured according to the following procedures.
# (§4) 1) From the 2nd to the 11th rows of a 96-well plate were filled with DMEM (50 μl). The 12th row was filled with 100 μl of DMEM.
# (§5) 2) The 1st row was filled with 98 μl of DMEM.
# (§6) 3) Drugs (2 μl each) were added into the 1st row.
# (§7) 4) Continuous double-dilution was conducted from the 1st to the 9th rows. Fifty μl were taken out from the 9th row and discarded. The plate was preserved in a CO2 incubator.
# (§8) 5) Cells (each high-expressing cells and the parental cell line) were detached from the medium using a trypsin solution, suspended in 10% CS-DMEM and transferred to a test tube and cell numbers (cell/ml) were counted.
# (§9) 6) The cells were diluted to a concentration of 1×10^5 cells/ml, and 50 μl of the cell suspension were added to the 1st to the 11th rows of the plate followed by gently stirring.
# (§10) 7) The plate was transferred to the CO2 incubator and incubated for 3 to 4 days.
# (§11) 8) MTT (5 mg/ml in PBS) (10 μl) was added to the 1st to the 12th rows of the plate and incubated in the CO2 incubator at 37° C. for 4 hours.
# (§12) 9) A reaction stop solution (0.04N HCl in isopropanol) (150 μl) was added followed by mixing well and being allowed to stand at room temperature for about 2 hours.
# (§13) 10) Coloration of formazan which was a metabolite of the MTT dye was measured using a microplate reader. The measurement wavelength was 574 nm and the reference wavelength was 655 nm. The 10th and the 11th rows of the plate were 100% controls and the 12th row was a 0% control.
# (§14) As an index for the sensitivity of highly gene-expressing cells and the parental cell line to various drugs, each of the IC40 values thereof was specified and ratios of the IC40 values were calculated. FIG. 2 and FIG. 3 are the examples where ratios of IC40 values were calculated from a curve showing the dependency on the concentration of the chemical versus the viability. After that, logarithmic values of ratios of IC40 values were calculated from each gene.
# [2] = test system: NIH3T3 cells, TPA (PKC downreg); experiment: MTT cell viability, TPA (PKC downreg) cells vs parental line; conditions: 3 to 4 days
# Protocol: as §1, §2, §3, §4, §5, §6, §7, §8, §9, §10, §11, §12, §13, §14
# [3] = test system: NIH3T3 cells overexpressing PKCepsilon-KN; experiment: MTT cell viability, PKCepsilon-KN overexpressing cells vs parental line; conditions: 3 to 4 days
# Protocol: as §1, §2, §3, §4, §5, §6, §7, §8, §9, §10, §11, §12, §13
# (§15) As an index for the sensitivity of highly gene-expressing cells and the parental cell line to various drugs, each of the IC40 values thereof was specified and ratios of the IC40 values were calculated. […] After that, logarithmic values of ratios of IC40 values were calculated from each gene.
# [4] = test system: NIH3T3 cells overexpressing cystatin E; experiment: MTT cell viability, cystatin E overexpressing cells vs parental line; conditions: cystatin E high-expressing cells / parental cell line, 3 to 4 days
# Protocol: as §1, §2, §3, §4, §5, §6, §7, §8, §9, §10, §11, §12, §13, §14
# [5] = test system: NIH3T3 cells overexpressing HNF4; experiment: MTT cell viability, HNF4 overexpressing cells vs parental line; conditions: HNF4 high-expressing cells / parental cell line, 3 to 4 days
# Protocol: as §1, §2, §3, §4, §5, §6, §7, §8, §9, §10, §11, §12, §13, §15
# [6] = test system: NIH3T3 cells overexpressing PKCalpha-KN; experiment: MTT cell viability, PKCalpha-KN overexpressing cells vs parental line; conditions: 3 to 4 days
# Protocol: as §1, §2, §3, §4, §5, §6, §7, §8, §9, §10, §11, §12, §13, §15
# [7] = test system: NIH3T3 cells overexpressing caspase-3; experiment: MTT cell viability, caspase-3 overexpressing cells vs parental line; conditions: caspase-3 high-expressing cells / parental cell line, 3 to 4 days
# Protocol: as §1, §2, §3, §4, §5, §6, §7, §8, §9, §10, §11, §12, §13, §15
# [8] = test system: NIH3T3 cells overexpressing RhoA; experiment: MTT cell viability, RhoA overexpressing cells vs parental line; conditions: RhoA high-expressing cells / parental cell line, 3 to 4 days
# Protocol: as §1, §2, §3, §4, §5, §6, §7, §8, §9, §10, §11, §12, §13, §14
# [9] = test system: NIH3T3 cells overexpressing DAN; experiment: MTT cell viability, DAN overexpressing cells vs parental line; conditions: DAN high-expressing cells / parental cell line, 3 to 4 days
# Protocol: as §1, §2, §3, §4, §5, §6, §7, §8, §9, §10, §11, §12, §13, §14
# [10] = test system: NIH3T3 cells overexpressing CaMKIIa; experiment: MTT cell viability, CaMKIIa overexpressing cells vs parental line; conditions: CaMKIIa high-expressing cells / parental cell line, 3 to 4 days
# Protocol: as §1, §2, §3, §4, §5, §6, §7, §8, §9, §10, §11, §12, §13, §15
# [11] = test system: NIH3T3 cells overexpressing p16/INK4A; experiment: MTT cell viability, p16/INK4A overexpressing cells vs parental line; conditions: p16/INK4A high-expressing cells / parental cell line, 3 to 4 days
# Protocol: as §1, §2, §3, §4, §5, §6, §7, §8, §9, §10, §11, §12, §13, §14
# [12] = test system: NIH3T3 cells overexpressing v-src; experiment: MTT cell viability, v-src overexpressing cells vs parental line; conditions: v-src high-expressing cells / parental cell line, 3 to 4 days
# Protocol: as §1, §2, §3, §4, §5, §6, §7, §8, §9, §10, §11, §12, §13, §14
# [13] = test system: NIH3T3 cells overexpressing Regucalcin; experiment: MTT cell viability, Regucalcin overexpressing cells vs parental line; conditions: Regucalcin high-expressing cells / parental cell line, 3 to 4 days
# Protocol: as §1, §2, §3, §4, §5, §6, §7, §8, §9, §10, §11, §12, §13, §14
# [14] = test system: NIH3T3 cells overexpressing p38-DN; experiment: MTT cell viability, p38-DN overexpressing cells vs parental line; conditions: p38-DN high-expressing cells / parental cell line, 3 to 4 days
# Protocol: as §1, §2, §3, §4, §5, §6, §7, §8, §9, §10, §11, §12, §13, §15
# [15] = test system: NIH3T3 cells overexpressing Ha-ras; experiment: MTT cell viability, drug sensitivity of Ha-ras overexpressing cells vs parental line; conditions: Ha-ras high-expressing cells / parental cell line, 3 to 4 days
# Protocol: as §1, §2, §3, §4, §5, §6, §7, §8, §9, §10, §11, §12, §13, §15
# [16] = test system: NIH3T3 cells overexpressing PDGF-R-Del; experiment: MTT cell viability, PDGF-R-Del overexpressing cells vs parental line; conditions: PDGF-R-Del high-expressing cells / parental cell line, 3 to 4 days
# Protocol: as §1, §2, §3, §4, §5, §6, §7, §8, §9, §10, §11, §12, §13, §14
# [17] = test system: NIH3T3 cells overexpressing HSP4O; experiment: MTT cell viability, HSP4O overexpressing cells vs parental line; conditions: HSP4O high-expressing cells / parental cell line, 3 to 4 days
# Protocol: as §1, §2, §3, §4, §5, §6, §7, §8, §9, §10, §11, §12, §13, §14
# [18] = test system: NIH3T3 cells overexpressing Bax; experiment: MTT cell viability, Bax overexpressing cells vs parental line; conditions: 3 to 4 days
# Protocol: as §1, §2, §3, §4, §5, §6, §7, §8, §9, §10, §11, §12, §13, §15
# [19] = test system: NIH3T3 cells overexpressing HNF1; experiment: MTT cell viability, HNF1 overexpressing cells vs parental line; conditions: HNF1 high-expressing cells / parental cell line, 3 to 4 days
# Protocol: as §1, §2, §3, §4, §5, §6, §7, §8, §9, §10, §11, §12, §13, §15
# [20] = PKCepsilon-KN (first of two lines) high-expressing cells / parental cell line
# [21] = PKCepsilon-KN (second of two lines) high-expressing cells / parental cell line
# [22] = PKCalpha-KN (first of two lines) high-expressing cells / parental cell line
# [23] = PKCalpha-KN (second of two lines) high-expressing cells / parental cell line
# [24] = Bax (first of two Bax lines) high-expressing cells / parental cell line
# [25] = Bax (second of two Bax lines) high-expressing cells / parental cell line
SMILES,logarithmic value of ratio of IC40 values [1],logarithmic value of ratio of IC40 values [2],"logarithmic value of ratio of IC40 values [3, 20]","logarithmic value of ratio of IC40 values [3, 21]",logarithmic value of ratio of IC40 values [4],logarithmic value of ratio of IC40 values [5],"logarithmic value of ratio of IC40 values [6, 22]","logarithmic value of ratio of IC40 values [6, 23]",logarithmic value of ratio of IC40 values [7],logarithmic value of ratio of IC40 values [8],logarithmic value of ratio of IC40 values [9],logarithmic value of ratio of IC40 values [10],logarithmic value of ratio of IC40 values [11],logarithmic value of ratio of IC40 values [12],logarithmic value of ratio of IC40 values [13],logarithmic value of ratio of IC40 values [14],logarithmic value of ratio of IC40 values [15],logarithmic value of ratio of IC40 values [16],logarithmic value of ratio of IC40 values [17],"logarithmic value of ratio of IC40 values [18, 24]",also measured
"C=C[C@]1(C)CC[C@@H](C(=C)C)C[C@H]1C(=C)C [b-elemene, β-elemene]",−0.14,0.00,0.00,−0.23,0.07,0.33,0.07,−0.07,0.28,0.00,0.04,0.16,0.12,−0.35,−0.09,0.05,−0.26,0.16,0.02,0.14,"logarithmic value of ratio of IC40 values [18, 25]: 0.00; logarithmic value of ratio of IC40 values [19]: 0.02"
"C[C@@H]1C[C@@H]([C@H](O)CC2CC(=O)NC(=O)C2)C(=O)[C@@H](C)C1 [CHX, cycloheximide]",−0.13,0.00,0.06,0.20,0.00,0.22,0.30,0.29,0.10,0.14,0.72,0.04,0.04,−0.32,0.08,0.04,−0.19,0.39,0.00,−0.08,"logarithmic value of ratio of IC40 values [18, 25]: 0.00; logarithmic value of ratio of IC40 values [19]: 0.38"
"O=[As]O [NaAsO2, sodium arsenite]",0.18,−0.20,−0.07,0.35,0.15,0.00,0.16,0.22,0.11,0.07,−0.15,0.00,0.16,0.11,0.03,0.00,0.04,0.00,−0.02,−0.10,"logarithmic value of ratio of IC40 values [18, 25]: 0.34; logarithmic value of ratio of IC40 values [19]: −0.14"
"O=c1c(-c2ccc(O)cc2)coc2cc(O)cc(O)c12 [Genistein, genistein]",0.08,−0.09,0.00,0.19,0.21,−0.15,0.16,0.24,0.04,0.31,0.20,−0.15,0.40,−0.60,0.00,0.00,−0.35,0.33,0.00,0.20,"logarithmic value of ratio of IC40 values [18, 25]: 0.38; logarithmic value of ratio of IC40 values [19]: 0.234"
COC(=O)[C@@]1(O)C[C@H]2O[C@]1(C)n1c3ccccc3c3c4c(c5c6ccccc6n2c5c31)C(=O)NC4 [K252a],0.23,−0.13,0.00,−0.09,−0.19,−0.22,0.16,0.02,0.15,0.10,−0.46,0.04,−0.22,−0.22,−0.34,−0.15,0.65,0.10,0.07,−0.11,"logarithmic value of ratio of IC40 values [18, 25]: 0.60; logarithmic value of ratio of IC40 values [19]: −0.207"
